Test results as given in patent US20100233199A1, “MODULATORS OF HYPERSENSITIVITY REACTIONS” (priority 2007, published 2010).

Experiments:
[1] = system: RBL-2H3 cells; assay: RBL-2H3 degranulation assay (β-hexosaminidase release); assay type: cell-based, rat; conditions: for degranulation upon IgE receptor crosslinking: peptide 0.01 mM pre-treatment overnight, IgE coating + DNP/albumin crosslinking, FIG. 7
Method: (§1) Mast cell degranulation was measured using the β-hexosaminidase release method. RBL-2H3 cells were grown in F15 medium supplemented with 10% of fetal calf serum (FCS) and antibiotics. Cells were carefully detached from the culture flask with a cell scraper and plated at a concentration of 5×10^5 cells/well in a 96 well microtiter plate and incubated in the presence of MDD1 or SCR peptide overnight. RBL-2H3 cells were then incubated with 500 ng/ml anti-DNP IgE mb (SIGMA) for 2 hours at 37° C. After washing, cells were stimulated with 100 ng/ml DNP/albumin for 30 minutes. For non IgE specific stimulation 1 nM Ionomycin only was added to the cultures for 30 minutes. Supernatants were then collected and cell lysates were prepared using 0.1% Triton X-100. Lysate and supernatant samples (10 μl) were transferred into 96-well plates and 50 μl mM 1 mM p-nitrophenyl-N-acetyl-β-D-glucopyranoside in 50 mM citrate buffer was added to each well and incubated for 1 hour at 37° C. in the dark. The reaction was stopped by adding 100 μl 0.1M NaHCO3/0.1M Na2CO3 into each well and the absorbance measured at 405 nm. Percentage degranulation was calculated by the following formula: OD supernatant/(OD supernatant+OD lysate)×100.
as §1, with “MPX741 peptide” for “MDD1”, “MPX742” for “SCR”, “(100)” for “(10 μl)”, “μl” for “μl mM”, “formula:” for “formula: OD supernatant/(OD supernatant+OD lysate)×100.”
OD supernatant/(OD supernatant+OD lysate)×100.

[2] = Peptide solubility observation; assay type: physicochemical
[3] = system: skin mast cells; assay type: in vivo, mice; conditions: for systemic effects of local (ear) treatment: mouse, in vivo
Method: Left ears were treated with DMSO and right ears with 0.2% MDD1 or 0.1% dexamethasone in DMSO twice daily for four days. Mice were then sensitised with anti DNP-20 ul IgE antibody administered to the ears by intradermal injection using an insulin syringe. Local mast cell activation was measured by dye recovery in response to FcεRI crosslink 24 hours post-injection: 100 μg DNP-albumin/1% Evans blue in PBS was injected intravenously and ear biopsies taken after 30 minutes were incubated at 80° C. in 1 ml formamide for 2 hours. The absorbance supernatant was measured at 620 nm.

[4] = system: RBL-2H3 cells; assay: MDD1 uptake by RBL-2H3 cells (FACS, streptavidin-APC); assay type: cell-based, rat; conditions: biotinylated MDD1 0.001, 0.01 and 0.1 mM overnight; intracellular FACS staining with streptavidin APC; FIG. 6
Method: RBL-2H3 cells were grown in F15 medium supplemented with 10% of fetal calf serum (FCS) and antibiotics. Cells were carefully detached from the culture flask with a cell scraper and plated at a concentration of 5×10^5 cells/well in a 96 well microtiter plate. Cells were incubated with various concentrations of biotinylated MDD1 (0.1, 0.01 and 0.001 mM) overnight. Biotinylated MDD1 uptake by live cells was detected using streptavidin-APC in single-cell suspensions previously treated with a combined cytofix/cytopenn fixation and penneabilization solution kit following manufacture's instructions (Becton Dickinson, BD). Cells were then analysed using a BD FACscan flow cytometer.

[5] = system: OVA-sensitised mice; assay: OVA-induced asthma model, lung resistance after β-methacholine; assay type: in vivo, C57BL/6 mice; conditions: 6 hours prior to each OVA challenge, compared to control peptide
Method: (§2) C57BL/6 mice were sensitised with 10 ug ovalbumin antigen (OVA) in saline intraperitoneally seven times given on alternate days. 40 days after first sensitisation dose, mice were challenged with intranasal OVA (20 ul in each nostril of a solution of 5 mg/ml of OVA in saline). Mice received two additional challenges of intranasal OVA at days 3 and 6 after the first challenge with OVA. Control mice were sensitised with OVA, but challenged intranasally with saline. Groups of mice receiving parenteral MDD1 treatment were intravenously injected with 8 mg/Kg of MDD1 three times, 6 hours prior to each OVA challenge. Nebulised MDD1 or MDDscram (SCR) peptide was given 6 hours prior to each OVA challenge by nebulising 5 mice per cage with 8 ml of 1 mg/ml MDD1 or control peptide.
Functional lung studies and organ collection was performed one day after the final OVA challenge. Lung resistance was measured in anesthetized mice after increasing doses of β-methacholine. […] Lung resistance was measured by plethysmography, using an apparatus and software supplied by Buxco. Lung resistance values are expressed as an average of each group of mice for each methacholine dose. For each mouse, individual values were calculated by averaging collected data (every 5 seconds during 5 minutes) for each methacholine dose.

[6] = system: OVA-sensitised mice; assay: OVA-induced asthma model, inflammatory response (eosinophils, BAL cells, cytokine expression, serum IgE); assay type: in vivo, C57BL/6 mice
Method: as §2
Blood smears were prepared and the percentage of eosinophils was calculated by morphological criteria after May-Grünwald Giemsa-staining. Bronchoalveolar lavage (BAL) was recovered by lavaging airways twice with 1 ml HANKS solution via the tracheal cannula while gently massaging the thorax. Lung lower left lobe was collected and homogenised. Cells were filtered through a cell strainer and cell suspensions prepared in staining medium (PBS with 1% FCS). BAL and lung samples were incubated with anti-CD11b, anti-CCR3, anti-CD4 and antiB220 mab markers for flow cytometric analysis using a FACScan equipped with CellQuest software.
Lung upper right lobe was collected and homogenised on ice. Total RNA was prepared using Trizol (GIBCO, Invitrogen). Purity of the RNA was determined by A260/A280. 5 μg RNA for each sample was reverse transcribed into cDNA using Omniscript RT kit (Qiagen). Cytokine specific predesigned TaqMan gene expression assay (Applied Biosystems) were used to measure cytokine relative gene expression following the manufacturer's instructions (Applied Biosystems). Each experimental sample was assayed in three replicates. β-actin specific primers were used as an internal standard. Negative controls with blank cDNA template were run with every assay to assess specificity. The cycling conditions were as follows: one cycle at 95° C. for 10 minutes, followed by 40 cycles of PCR amplification, each consisting of 95° C. for 15 seconds and 60° C. for 45 seconds. Sequence Detection Software (SDS v 1.2.2, Applied Biosystems) was used for analysis of the results. A threshold cycle (Ct) was determined for each sample. PCR assays showing non-specific products at the end point were excluded from further data analysis. Relative quantification using comparative Ct method was used for analysing results. The results were expressed as relative fold change over the values for non-allergic mice.
OVA-specific IgE detection: 96-well maxisorp plates were coated overnight at 4° C. with anti-mouse IgE. 2% skim milk was used for unspecific binding blockade. Prediluted serum samples were incubated overnight, plates were loaded with OVA-biotin for 1.5 hours and a colometric reaction was developed using ABTS following manufacture's instructions. For OVA-specific IgG, 96-well maxisorp microtiter plates were pretreated with 0.2% glutaraldehyde and were coated with 10 μg/ml of OVA in 10 mM carbonate buffer (pH 9.6) for 3 hours at 37° C. Wells were blocked with 2% BSA in 10 mM carbonate buffer (pH 9.6) overnight at 4° C. in a humidified chamber. Serum samples were incubated at 37° C. for 1 hour. Peroxidase-conjugated […] followed by ABTS was used to develop the colorimetric reaction. Optical density was read in a microplate reader using a 405 nm filter. Levels of IgE and IgG were expressed as OD units.

For “LEPPVKLKELHFSNMKTVD (listed as Homo sapiens) [MPX742]”, the “degranulation following IgE receptor crosslink” value ([1]; MPX741, MPX742 0.01 mM pre-treatment, IgE coating + crosslinking, FIG. 11) was “significantly reduced degranulation”.

For “Ac-PQDQGWNAEITLQMVQY-NH2 [MPX743, PQDQGWNAEITLQMVQY]”, the solubility [2] was “poorly soluble”.

With `C[C@@H]1C[C@H]2[C@@H]3CCC4=CC(=O)C=C[C@]4(C)[C@@]3(F)[C@@H](O)C[C@]2(C)[C@@]1(O)C(=O)CO` [dexamethasone, reference compound] the “systemic effects of local (ear) treatment” value [3] was “systemic immunosuppresion”.

For “EALPGEDCAFRKDANRLVEY (listed as Homo sapiens) [MDD1scram, control peptide, reference compound]”, the “degranulation upon IgE receptor crosslinking” value [1] was “only a minor inhibitory effect”.

With Ac-RALYDNVPECAEELAFRKGD-NH2 [MDD1] the “MDD1 peptide uptake by live cells” value [4] was “All cells were positive for MDD1 peptide and the levels were observed to increase with peptide concentration”, the “mast cell activation after non-specific stimulation” value ([1]; non IgE specific stimulation (ionomycin), data not shown) was “inhibit mast cell activation” and the “degranulation upon IgE receptor crosslinking” value [1] was “inhibit degranulation”. For the same compound, the “Lung resistance (RL) following increasing doses of β-methacholine” value ([5]; intravenously 8 mg/kg, FIG. 8A) was “reduced”, the “Lung resistance (RL) following increasing doses of β-methacholine” value ([5]; nebulised intranasal route 1 mg/ml, FIG. 8B) was “reduced” and the “overall inflammatory response in the asthmatic reaction” value ([6]; OVA-sensitized mice, FIG. 9) was “reduced”. For the same compound, the eosinophilia in blood ([6]; allergic mice compared to control treated mice, FIG. 9A) was “decreased”, the “cellularity in broncho-alveolar lavages” value ([6]; allergic mice compared to control treated mice, FIG. 9B) was “decreased” and the “cytokine production in inflammatory foci (TNF expression)” value ([6]; allergic mice compared to control treated mice, FIG. 9C) was “decreased”. For the same compound, the “levels of antigen-specific IgE in serum” value ([6]; allergic mice compared to control treated mice, FIG. 9D) was “decreased”, the “comparison with dexamethasone treatment in the inflammatory parameters tested” value ([6]; dexamethasone 2 mg/kg i.p., some of the parameters, FIG. 9) was “outperformed dexamethasone treatment” and the “mast cell activation following IgE receptor crosslink, by dye extravasation” value ([3]; 0.2% MDD1 peptide/DMSO topically to ear, twice daily for four days, compared to contralateral ears treated with DMSO only, FIG. 10) was “reduced levels of activation”. For the same compound, the “systemic effects of local (ear) treatment” value [3] was “minimal systemic effects”.
